Experimental data taken from patent publication EP1276895B1, “METHOD FOR THE IDENTIFICATION OF ACTIVE SITE PROTEASE INACTIVATORS” (THE UNIVERSITY OF GEORGIA RESEARCH FOUNDATION, INC., priority 2000, dated 2001).
Values joined by “and” are separate entries in the source; they are usually repeats but may differ in a detail not shown here. Equal values may be shown once. Residues, ends and D or L forms follow the SMILES beside them. *: point of attachment. AFC = O=c1cc(C(F)(F)F)c2ccc(N*)cc2o1; Cbz = O=C(OCc1ccccc1)*

Legend:
[1] = test system: purified Taenia solium cysteine protease; experiment: Competitor assay of low Vmax substrates (vehicles) against high Vmax substrate cocktails (Step III), purified protease; assay type: biochemical; conditions: for inhibition in the presence of the 1.4% cocktail: 1.4% cocktail = Z-FR-AFC 1X10^-6M; for inhibition with the final cocktail (7.4%): 7.4% cocktail = Z-FR-AFC + Z-FAR-AFC + Z-AAK-AFC + AP-AFC + Z-VLR-AFC, 1X10^-6 M each, vehicle 8X10^-6 M; for Ki of vehicle: Dixon plot, preliminary, values not reported
Protocol: (We employed "Vmax" here although Kcat could also be used). Due to the lower number of substrates, a percentage was not chosen for the "BOTTOM %" " substrates. Alternately, all substrates which were not cleaved as determined by a value of 10 uM/hr or less, were chosen to be tested in this step for competitive ability. From this point forth, the term "vehicle" will represent low Vmax substrates that were capable of inhibiting cleavage of the percent cocktails. In this instance, we tested for "vehicles" which inhibited cleavage of the TOP 1.4% cocktail (they were delivered into the active site). Based upon our results from Step II, the top 1.4% cocktail was composed of Z-Phe-Arg-AFC, the highest cleaved substrate.
(§1) The experiment began with a competitor test between the noncleaved low Vmax substrates and the highest Vmax substrate, Z-Phe-Arg-AFC. Concentrations were varied between the low Vmax substrate and Z-Phe-Arg-AFC, as described above under "refinement of assay" until a relative inhibition profile was obtained.
The mixture was allowed to equilibrate for a period of 30 minutes. Finally, active purified enzyme was added to the tubes at a concentration which was always 50 times less than the concentration of the high and low Vmax substrates, in order to insure saturation conditions. This concentration varied from purification to purification and the amount added depended upon the yield and specific activity of the purified protease.
Positive controls were set up similarly as described for test controls, except that solvent was added in substitution for the low Vmax substrate (in a volume equal to the low Vmax volume addition). All of the substrates could be dissolved in dimethylsulfoxide (DMSO), and therefore, this was the solvent of choice. Negative controls were set up by adding the low Vmax and the high Vmax substrate in a tube without the protease. All potential non-proteolytic induced liberation of AFC was therefore controlled for in this tube (a feature which also insured stability of the AFC substrates, since these substrates will freely liberate AFC when unstable). A tube set will be established for this negative control.
All controls were set up in triplicate, and experiments repeated a minimum of five times. The assays were incubated at 37°C, for 18 hours overnight.
(§2) Percent inhibition was calculated as: %Inhibition =; ((AFC positive for"Y"-AFC negative for"Y")-(AFC test-AFC negative for"Y")X100)/(AFC positive for "Y"-AFC negative for "Y") [formula]
A 2.9% cocktail of the high Vmax substrates was made. This was composed of Z-FR-AFC and the second most cleaved substrate, Z-FAR-AFC. The vehicles promoted from the initial screenings above were again tested for competitive inhibition ability with the new cocktails. Their concentrations were set identically to those which were "fixed" in the previous protocols. In other words, 8X10^-6M of the vehicle was added to the culture tube with 1X10^-6 M of Z-FR-AFC and 1X10^-6 M of Z-FAR-AFC. Active protease was added last at a concentration that was 50 times less than the concentration of the high Vmax substrate (to ensure saturating conditions).
In similar experimental fashion, a 4.4%, 5.9%, and 7.4% cocktail were tested with each of the promising vehicles. Each percentage point represented an increase by one substrate. Each of the individual components in the cocktail were added at 1X10^-6 M each, to 8X10^-6 M of the vehicle. The composition of the cocktails was as follows: 4.4% cocktail: Z-FR-AFC, Z-FAR-AFC, and Z-AAK-AFC (third highest cleaved substrate); 5.9% cocktail: Z-FR-AFC, Z-FAR-AFC, Z-AAK-AFC, and AP-AFC (fourth highest cleaved substrate); 7.4% cocktail: […], Z-FAR-AFC, Z-AAK-AFC, AP-AFC, and Z-VLR-AFC. We stopped at this number of substrates in the cocktail, since confidence was obtained that inhibitory potential of vehicles could be "diluted out."
Finally, a manageable set of candidate vehicles was determined. […]

Taenia solium crude mix = experiment: Competitor assay of vehicles against high Vmax substrate cocktails (Step III), crude mix; assay type: biochemical; conditions: for V Value: V = P * M
Protocol: Step III for a crude mix proceeds it would for a purified protease, except that Vm is used instead of kcat.
as §1, §2
One of the most intriguing findings in this experiment was that a highly similar inhibition pattern for the competitor assay was noted when the crude mix was employed as the source of the target protease. Although there were some variations in the effects of inhibitor dilution, the most highly ranked vehicles remained inhibitory consistently in comparison to the profile with the target protease. The relative profile and composition of the top tiers of vehicles was identical. Z-LLL-AFC, Z-LLY-AFC, Mu-LY-AFC, Boc-VPR-AFC, Z-SY-AFC, Z-RR-AFC, Z-FLF-AFC, Z-LGR-AFC consistently presented as the top eight vehicles (Fig. 5b), respectively, based upon their V values (Table 2). […] It was notable that the three vehicles had very similar V values. […] As was mentioned, this vehicle along with Z-LLL-AFC and Z-LLY-AFC, were consistently the most inhibitory vehicles. The V values of the most inhibitory vehicle series are shown below in Table 2. Again, a clear break between the first and second tier vehicles could be noted with the V value. Table 2. Vehicles and V value rankings.

[2] = vehicle 8X10^-6M, purified protease

| Compound | inhibition in the presence of the 1.4% cocktail [1, 2] | inhibition with the final cocktail (7.4%) ([1]; purified protease) | Ki of vehicle [1] | Tier (Taenia solium crude mix) | V Value (Taenia solium crude mix) | V Value ([1]; purified protease, V = P * M, P = inhibition with first (1.4%) cocktail, M = inhibition with last (7.4%) cocktail, vehicle 8X10^-6M, each cocktail substrate 1X10^-6 M) |
| --- | --- | --- | --- | --- | --- | --- |
| CC(C)C[C@H](NC(=O)OCc1ccccc1)C(=O)N[C@@H](CC(C)C)C(=O)N[C@@H](Cc1ccc(O)cc1)C(=O)Nc1ccc2c(C(F)(F)F)cc(=O)oc2c1 [Z-LLY-AFC, Z-Leu-Leu-Tyr-AFC] (Cbz-Leu-Leu-Tyr-{AFC}) | greater than 20% | ≥ 50% | lowest Ki values | 1 (The first tier was composed of those vehicles, which produced inhibition greater than 50% when in the presence of the 1.4% cocktail) | 0.55 |  |
| CC(C)C[C@H](NC(=O)OCc1ccccc1)C(=O)N[C@@H](CC(C)C)C(=O)N[C@@H](CC(C)C)C(=O)Nc1ccc2c(C(F)(F)F)cc(=O)oc2c1 [Z-LLL-AFC, Z-Leu-Leu-Leu-AFC] (Cbz-Leu-Leu-Leu-{AFC}) | greater than 20% | ≥ 50% | lowest Ki values | 1 (The first tier was composed of those vehicles, which produced inhibition greater than 50% when in the presence of the 1.4% cocktail) | 0.611 |  |
| Mu-Leu-Tyr-AFC [Mu-LY-AFC] |  | ≥ 50% | lowest Ki values | 1 (The first tier was composed of those vehicles, which produced inhibition greater than 50% when in the presence of the 1.4% cocktail) | 0.45 | 0.452 and 0.450 |
